Test results reported in ChEMBL document CHEMBL1127421, “The synthesis and in vitro evaluation of a 99mtechnetium-nitroimidazole complex based on a bis(amine-phenol) ligand: comparison to BMS-181321” (J Med Chem, 1994).

Tests used:
[1] = organism: Bos taurus; assay: Compound was evaluated for permeability index in cultured bovine endothelial cell monolayer system; format: ADME; conditions: cattle
[2] = organism: Rattus norvegicus; assay: Ratio in isolated cardiac myocytes under anoxic/oxic conditions; format: functional, cell-based
[3] = organism: Rattus norvegicus; assay: In vitro evaluation of efficacy of BAPN in isolated cardiac myocytes under anoxia condition; format: functional, cell-based
[4] = organism: Rattus norvegicus; assay: In vitro evaluation of efficacy of BAPN in isolated cardiac myocytes under normoxia condition; format: functional, cell-based
[5] = organism: Rattus norvegicus; assay: In vitro evaluation of efficacy of BAPN in isolated cardiac myocytes under anoxic/oxic conditions; format: functional, cell-based

| Permeability index [1] [Pi] | Substance | Ratio [2] | Retention [3] [%] | Retention [4] [%] | Ratio [5] |
| --- | --- | --- | --- | --- | --- |
| -0.25 | 99m Tc-BAPN [listing 1 of 2 here] | – | – | – | – |
| – | 99m Tc-BAPN [listing 2 of 2 here] | 1.08 | 41.4 | 38.2 | – |
| 63.2 | 99m Tc-BMS 181321 [listing 1 of 2 here] | – | – | – | – |
| – | 99m Tc-BMS 181321 [listing 2 of 2 here] | 3.03% | – | 17.6 | 3.03 |
